Where two headings read alike, the source gives them in different places.
Target: human cannabinoid CB2 receptor (Homo sapiens, UniProt P34972)
Assay: Cannabinoid CB2 receptor agonist activity (yeast reporter assay, FDGlu fluorescence)
Assay type: cell-based
Conditions: for Emax: read-out: efficacy value (Emax relative to HU210) at the cloned human cannabinoid CB2 receptor
How it was run: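 Agonist-driven growth was read as fluorescein fluorescence (ex 485, em 535 nm) from FDGlu cleavage after 24 h at 30 °C, using yeast strain MMY23 carrying human CB2 and chimeric Gpa1/Gαi3. Medium had 10 mM 3-aminotriazole, pH 7.0; four-parameter fits gave EC50, with Emax and EMR versus HU210.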

[1] = EC50 value at the cloned human cannabinoid CB2 receptor

Sequence of human cannabinoid CB2 receptor (P34972 whole entry): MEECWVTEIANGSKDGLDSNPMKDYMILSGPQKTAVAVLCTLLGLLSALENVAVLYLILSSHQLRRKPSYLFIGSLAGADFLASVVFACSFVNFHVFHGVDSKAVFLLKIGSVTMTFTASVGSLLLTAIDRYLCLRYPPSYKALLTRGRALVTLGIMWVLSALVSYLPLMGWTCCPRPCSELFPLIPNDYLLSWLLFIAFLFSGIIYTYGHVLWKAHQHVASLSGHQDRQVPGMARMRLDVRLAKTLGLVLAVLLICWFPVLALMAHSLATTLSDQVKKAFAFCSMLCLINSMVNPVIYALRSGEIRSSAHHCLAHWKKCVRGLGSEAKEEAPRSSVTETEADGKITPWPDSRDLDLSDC

Which EC50 [1] does the source give for `O=C(NCC1CCC1)c1cnc(Nc2ccc(F)cc2C(F)(F)F)nc1C(F)(F)F` [Example 101, 2-(2-Trifluoromethyl-4-fluorophenylamino)-4-trifluoromethyl-pyrimidine-5-carboxylic acid cyclobutylmethyl-amide] here?
The EC50 was 300 to 1000 nM.

And the Emax?
Its Emax is over 50%.

Which EC50 [1] does the source give for `O=C(NCC1CCCCC1)c1cnc(Nc2ccc(F)cc2C(F)(F)F)nc1C(F)(F)F` [Example 100, 2-(2-Trifluoromethyl-4-fluorophenylamino)-4-trifluoromethyl-pyrimidine-5-carboxylic acid cyclohexylmethyl-amide] here?
Its EC50 is 300 to 1000 nM.

What about the Emax of the same compound?
The Emax was over 50%.

For `O=C(NCC1CCCC1)c1cnc(Nc2cc(Cl)cc(Cl)c2)nc1C(F)(F)F` [Example 45, 2-(3,5-Dichlorophenylamino)-4-trifluoromethylpyrimidine-5-carboxylic acid cyclopentylmethyl-amide], which EC50 [1] is on record?
The EC50 was 20 to 300 nM.

And the Emax?
Its Emax is over 50%.

With `O=C(NCC1CCCCC1)c1cnc(Nc2ccc(Cl)cc2Cl)nc1C(F)(F)F` [Example 16, 2-(2,4-Dichlorophenylamino)-4-trifluoromethylpyrimidine-5-carboxylic acid cyclohexylmethyl-amide] as the compound, how does the EC50 [1] read?
The EC50 was 20 to 300 nM.

What about the Emax of the same compound?
Its Emax is over 50%.

Which EC50 [1] does the source give for `O=C(NCc1ccnc(F)c1)c1cnc(Nc2cccc(Br)c2)nc1C(F)(F)F` [Example 353, 2-(3-Bromo-phenylamino)-4-trifluoromethyl-pyrimidine-5-carboxylic acid (2-fluoro-pyridin-4-ylmethyl)-amide] here?
Its EC50 is 20 to 300 nM.

Which EC50 [1] does the source give for `O=C(NCc1ccncc1)c1cnc(Nc2cc(Cl)ccc2Cl)nc1C(F)(F)F` [Example 284, 2-(2,5-Dichlorophenylamino)-4-trifluoromethylpyrimidine-5-carboxylic acid (pyridin-4-ylmethyl)amide] here?
The EC50 was 20 to 300 nM.

How did the EC50 [1] turn out when `O=C(NCc1ccc(F)c(F)c1)c1cnc(Nc2cccc(Cl)c2)nc1C(F)(F)F` [Example 346, 2-(3-Chloro-phenylamino)-4-trifluoromethyl-pyrimidine-5-carboxylic acid 3,4-difluoro-benzylamide] was run?
Its EC50 is 20 to 300 nM.

What does the source list for `O=C(NCC1CCC1)c1cnc(Nc2ccc(C(F)(F)F)cc2Cl)nc1C(F)(F)F` [Example 102, 2-(2-Chloro-4-trifluoromethylphenylamino)-4-trifluoromethyl-pyrimidine-5-carboxylic acid cyclobutylmethyl-amide]?
EC50 [1]: 300 to 1000 nM; Emax: > 50%

How did the EC50 [1] turn out when `O=C(NCC1CCCC1)c1cnc(Nc2cccc(F)c2)nc1C(F)(F)F` [Example 38, 2-(3-Fluorophenylamino)-4-trifluoromethylpyrimidine-5-carboxylic acid cyclopentylmethyl-amide] was run?
Its EC50 is 20 to 300 nM.

And the Emax?
The Emax was over 50%.

Which results are given for `O=C(NCC1CCCCC1)c1cnc(Nc2cc(Br)cc(C(F)(F)F)c2)nc1C(F)(F)F` [Example 91, 2-(3-Bromo-5-trifluoromethyl-phenylamino)-4-trifluoromethyl-pyrimidine-5-carboxylic acid cyclohexylmethyl-amide]?
EC50 [1]: 300 to 1000 nM; Emax: > 50%

Which results are given for `O=C(NCC1CC1)c1cnc(Nc2cccc(F)c2)nc1C(F)(F)F` [Example 83, 2-(3-Fluoro-phenylamino)-4-trifluoromethyl-pyrimidine-5-carboxylic acid cyclopropylmethyl-amide]?
EC50 [1]: 300 to 1000 nM; Emax: > 50%

How did the EC50 [1] turn out when `O=C(NCC1CCC1)c1cnc(Nc2ccc(F)cc2F)nc1C(F)(F)F` [Example 223, 2-(2,4-Difluoro-phenylamino)-4-trifluoromethyl-pyrimidine-5-carboxylic acid cyclobutylmethyl-amide] was run?
Its EC50 is 20 to 300 nM.

And the Emax?
Its Emax is over 50%.

`O=C(NC[C@H]1CCCO1)c1cnc(Nc2cccc(F)c2)nc1C(F)(F)F` [Example 73, 2-(3-Fluoro-phenylamino)-4-trifluoromethyl-pyrimidine-5-carboxylic acid [(R)-1-(tetrahydro-furan-2-yl)methyl]-amide] was tested. Which Emax did it give?
The Emax was over 50%.

With `O=C(NCC1CCOCC1)c1cnc(Nc2ccc(C(F)(F)F)c(F)c2)nc1C(F)(F)F` [Example 218, 2-(4-Trifluoromethyl-3-fluoro-phenylamino)-4-trifluoromethyl-pyrimidine-5-carboxylic acid (tetrahydro-pyran-4-ylmethyl)-amide] as the compound, how does the EC50 [1] read?
Its EC50 is 20 to 300 nM.

And the Emax?
Its Emax is over 50%.

Which EC50 [1] does the source give for `O=C(NCC1CCOCC1)c1cnc(Nc2cccc(Br)c2)nc1C(F)(F)F` [Example 32, 2-(3-Bromophenylamino)-4-trifluoromethylpyrimidine-5-carboxylic acid (tetrahydropyran-4-ylmethyl)amide] here?
Its EC50 is 20 to 300 nM.

And the Emax?
Its Emax is over 50%.

With `O=C(NC1CCC1)c1cnc(Nc2cccc(Cl)c2)nc1C(F)(F)F` [Example 23, 2-(3-Chlorophenylamino)-4-trifluoromethylpyrimidine-5-carboxylic acid cyclobutyl-amide] as the compound, how does the EC50 [1] read?
Its EC50 is 20 to 300 nM.

What about the Emax of the same compound?
The Emax was over 50%.

How did the Emax turn out when `CC(C)c1cc(Nc2cccc(Cl)c2)ncc1C(=O)NCC1CCS(=O)(=O)C1` (stereo not drawn) [Example 681, 6-(3-Chloro-phenylamino)-N-(1,1-dioxo-tetrahydro-1l^6-thiophen-3-ylmethyl)-4-isopropyl-nicotinamide] was run?
Its Emax is over 50%.

`O=C(NCC1CCOCC1)c1cnc(Nc2cccc(Cl)c2)nc1C(F)(F)F` [Example 22, 2-(3-Chlorophenylamino)-4-trifluoromethylpyrimidine-5-carboxylic acid (tetrahydro-pyran-4-ylmethyl)-amide] was tested. Which EC50 [1] did it give?
Its EC50 is 20 to 300 nM.

And the Emax?
The Emax was over 50%.

`O=C(NCc1ccc(F)cc1)c1cnc(Nc2ccc(C(F)(F)F)c(F)c2)nc1C(F)(F)F` [Example 369, 2-(3-Fluoro-4-trifluoromethyl-phenylamino)-4-trifluoromethyl-pyrimidine-5-carboxylic acid 4-fluoro-benzylamide] was tested. Which EC50 [1] did it give?
The EC50 was 20 to 300 nM.

`N#Cc1ccc(Nc2ncc(C(=O)NCC3CCCCC3)c(C(F)(F)F)n2)c(Cl)c1` [Example 237, 2-(2-Chloro-4-cyano-phenylamino)-4-trifluoromethyl-pyrimidine-5-carboxylic acid cyclohexylmethyl-amide] was tested. Which EC50 [1] did it give?
Its EC50 is 20 to 300 nM.

And the Emax?
Its Emax is over 50%.

How did the EC50 [1] turn out when `O=C(NCc1ccccc1)c1cnc(Nc2c(Cl)cccc2Cl)nc1C(F)(F)F` [Example 363, 2-(2,6-Dichloro-phenylamino)-4-trifluoromethyl-pyrimidine-5-carboxylic acid benzylamide] was run?
Its EC50 is 20 to 300 nM.

`O=C(NCC1CCC1)c1cnc(Nc2ccc(Cl)cc2Cl)nc1C(F)(F)F` [Example 201, 2-(2,4-Dichlorophenylamino)-4-trifluoromethyl-pyrimidine-5-carboxylic acid cyclobutylmethyl-amide] was tested. Which EC50 [1] did it give?
The EC50 was 20 to 300 nM.

And the Emax?
Its Emax is over 50%.

With `O=C(NCc1ccc(F)cc1)c1cnc(Nc2ccc(Cl)cc2Cl)nc1C(F)(F)F` [Example 365, 2-(2,4-Dichloro-phenylamino)-4-trifluoromethyl-pyrimidine-5-carboxylic acid 4-fluoro-benzylamide] as the compound, how does the EC50 [1] read?
Its EC50 is 20 to 300 nM.

Which EC50 [1] does the source give for `O=C(NCC1CCOCC1)c1cnc(Nc2ccc(Cl)cc2Br)nc1C(F)(F)F` [Example 239, 2-(2-Bromo-4-chloro-phenylamino)-4-trifluoromethyl-pyrimidine-5-carboxylic acid (tetrahydro-pyran-4-ylmethyl)-amide] here?
Its EC50 is 20 to 300 nM.

What about the Emax of the same compound?
Its Emax is over 50%.

How did the EC50 [1] turn out when `O=C(NCC1CCCC1)c1cnc(Nc2ccc(Cl)c(Cl)c2)nc1C(F)(F)F` [Example 44, 2-(3,4-Dichlorophenylamino)-4-trifluoromethylpyrimidine-5-carboxylic acid cyclopentylmethyl-amide] was run?
The EC50 was 20 to 300 nM.

And the Emax?
The Emax was over 50%.

Which results are given for `O=C(NC1CCC1)c1cnc(Nc2ccc(Cl)c(Cl)c2)nc1C(F)(F)F` [Example 30, 2-(3,4-Dichloro-phenylamino)-4-trifluoromethyl-pyrimidine-5-carboxylic acid cyclobutylamide]?
EC50 [1]: 300 to 1000 nM; Emax: > 50%

What does the source list for `CN(CC1CCCCC1)C(=O)c1cnc(Nc2cccc(Cl)c2)nc1C(F)(F)F` [Example 189, 2-(3-Chlorophenylamino)-4-trifluoromethyl-pyrimidine-5-carboxylic acid cyclohexylmethyl-methyl-amide]?
EC50 [1]: 20 to 300 nM; Emax: > 50%

How did the EC50 [1] turn out when `O=C(NCc1ccnc(F)c1)c1cnc(Nc2cccc(F)c2)nc1C(F)(F)F` [Example 354, 2-(3-Fluoro-phenylamino)-4-trifluoromethyl-pyrimidine-5-carboxylic acid (2-fluoro-pyridin-4-ylmethyl)-amide] was run?
The EC50 was 20 to 300 nM.

Which EC50 [1] does the source give for `O=C(NCc1ccnc(F)c1)c1cnc(Nc2ccc(Cl)cc2Cl)nc1C(F)(F)F` [Example 360, 2-(2,4-Dichloro-phenylamino)-4-trifluoromethyl-pyrimidine-5-carboxylic acid (2-fluoro-pyridin-4-ylmethyl)-amide] here?
Its EC50 is 20 to 300 nM.

Which EC50 [1] does the source give for `O=C(NCC1CCC1)c1cnc(Nc2cc(Cl)cc(Cl)c2)nc1C(F)(F)F` [Example 206, 2-(3,5-Dichlorophenylamino)-4-trifluoromethyl-pyrimidine-5-carboxylic acid cyclobutylmethyl-amide] here?
Its EC50 is 20 to 300 nM.

And the Emax?
Its Emax is over 50%.

Which results are given for `O=C(NCc1ccccc1)c1cnc(Nc2cccc(F)c2)nc1C(F)(F)F` [Example 277, 2-(3-Fluorophenylamino)-4-trifluoromethylpyrimidine-5-carboxylic acid benzyl-amide]?
EC50 [1]: 20 to 300 nM; Emax: > 50%

`O=C(c1cnc(Nc2cc(Cl)ccc2Cl)nc1C(F)(F)F)N1CCCCC1` [Example 85, 1-[2-(2,5-Dichloro-phenylamino)-4-tri-fluoromethyl-pyrimidin-5-yl]-1-piperidin-1-yl-methanone] was tested. Which EC50 [1] did it give?
Its EC50 is 300 to 1000 nM.

What about the Emax of the same compound?
The Emax was over 50%.

How did the EC50 (read-out: EC50 value at the cloned human cannabinoid CB2 receptor) turn out when `O=C(NCC1CCOCC1)c1cnc(Nc2cccc(Cl)c2F)nc1C(F)(F)F` [Example 212, 2-(2-Fluoro-3-chloro-phenylamino)-4-trifluoromethyl-pyrimidine-5-carboxylic acid (tetrahydro-pyran-4-ylmethyl)-amide] was run?
Its EC50 is 20 to 300 nM.

What does the source list for `N#Cc1c(Cl)cccc1Nc1ncc(C(=O)NCC2CCOCC2)c(C(F)(F)F)n1` [Example 109, 2-(3-Chloro-2-cyano-phenylamino)-4-tri-fluoromethyl-pyrimidine-5-carboxylic acid (tetrahydropyran-4-ylmethyl)-amide]?
EC50 [1]: 300 to 1000 nM; Emax: > 50%

Source: US20080132505A1 (Glaxo Group Limited, priority 2004, published 2008)
